# How the values were obtained:
# receptor EGFP-NK2R [1] = biological target: T1, receptor EGFP-NK2R (UniProt P16610); assay: Dissociation kinetics of NKA-Bo bound to EGFP-NK2R by fluorescence energy transfer; format: binding; design: % al (max): maximum value observed for the increase in amplitude of the rapid dissociation rate; ns = n; other: 20 nM of NK; % al (at 10 μM); other: compou; fused on or other part: EGFP fused to the receptor as FRET donor; settings: for % al (at 10 μM): compound 10 μM, T = 22 ± 1 is amplitude of rapid dissociation in the absence of effector; for % al (max): maximum value observed for the increase in amplitude of the rapid dissociation rate / EC50 / EC50 (μM): concentration of compound causing a 50% increase (relative to the maximum value) in the percentage of the amplitude of the rapid dissociation rate: Table 1, ns = not significant; for EC50: read-out: EC50 (μM): concentration of compound causing a 50% increase (relative to the maximum value) in the percentage of the amplitude of the rapid dissociation rate; for EC50 / EC50 (μM): concentration of compound causing a 50% increase (relative to the maximum value) in the percentage of the amplitude of the rapid dissociation rate: dissociation of NKA-Bo from EGFP-NK2R
# T1 sequence (P16610 1-390): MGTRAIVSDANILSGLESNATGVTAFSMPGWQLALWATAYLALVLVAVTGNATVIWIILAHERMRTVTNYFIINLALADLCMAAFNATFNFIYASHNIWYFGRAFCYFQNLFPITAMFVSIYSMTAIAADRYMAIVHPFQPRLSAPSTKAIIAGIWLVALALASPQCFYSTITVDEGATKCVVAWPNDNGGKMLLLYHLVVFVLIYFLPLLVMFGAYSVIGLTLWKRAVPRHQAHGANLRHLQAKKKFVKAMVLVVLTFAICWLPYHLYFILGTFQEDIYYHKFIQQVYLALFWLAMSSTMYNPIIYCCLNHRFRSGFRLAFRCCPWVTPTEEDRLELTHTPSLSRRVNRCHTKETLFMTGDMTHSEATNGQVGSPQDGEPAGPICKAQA
# Protocol: Dissociation (FIG. 4B): HEK 293 cells expressing the receptor EGFP-NK2R are put into suspension at a concentration of 1,000,000 cells/ml in Hepes physiological buffer (in mM: 137.5 NaCl; 1.25 MgCl2; 1.25 CaCl2; 6 KCl; 5.6 glucose; 10 Hepes; 0.4 NaH2PO4; 1% BSA (w/v); pH 7.4) and arranged in a 1 ml cuvette equipped with a magnetic stirrer on the cuvette holder of a SPEX fluorolog 3 spectrofluorimeter.
# (§1) The amplitude of each relaxation is then given by the adjustment of the experimental traces.
# receptor EGFP-NK2R [2] = biological target: T1, receptor EGFP-NK2R; assay: Reversion of the binding of NKA-Bo to EGFP-NK2R by fluorescence energy transfer; design: % al (max): maximum value observed for the increase in amplitude of the rapid dissociation rate; ns = n; other: 20 nM of NK; % al (at 10 μM); other: compou; fused on or other part: EGFP fused to the receptor as FRET donor; settings: for % bond reversion (at 10 μM): compound 10 μM; for IC50: read-out: IC50 (μM): concentration of compound for which a 50% reduction is observed in the binding of NKA-Bo, 20 nM of NKA-Bo, EGFP-NK2R receptor
# Description: as §1
# [3] = system: cells not expressing the EGFP-NK2R receptor; assay: Calcium response on cells not expressing the receptor; format: cell-based; design: key: ns: not significant; ?: uniterpretable; settings: Table 1
# [4] = in the presence of 50 μM compound, dissociation by non-fluorescent NKA
SMILES,% al (at 10 μM) (receptor EGFP-NK2R [1]),% bond reversion (at 10 μM) (receptor EGFP-NK2R [2]),% al (max): maximum value observed for the increase in amplitude of the rapid dissociation rate (receptor EGFP-NK2R [1]),EC50 (receptor EGFP-NK2R [1]),IC50 (receptor EGFP-NK2R [2]),Ca Rep.: ability to evoke a calcium response on cells not expressing the EGFP-NK2R receptor [3],other results
"N#CCN(Cc1ccc2ccccc2c1)Cc1ccccc1Br [CV1-80, [(2-bromobenzyl)(2-naphthylmethyl)amino]acetonitrile]",25%,16%,–,–,–,–,–
"NC(=O)CN(Cc1ccccc1)Cc1ccc2ccccc2c1 [compound 807, 2-[benzyl(2-naphthylmethyl)amino]acetamide]",–,–,≧90%,–,–,+?,–
"COC(=O)CN(Cc1ccccc1)Cc1ccc2ccccc2c1 [compound 806, methyl [benzyl(2-naphtylmethyl)amino]acetate]",–,–,90%,10 to 20 µM,> 200 µM,ns,–
"N#CCN(Cc1ccc(Cl)c(Cl)c1)Cc1ccc2ccccc2c1 [NP246 or 803, [(3,4-dichlorobenzyl)(2-naphthylmethyl)amino]acetonitrile]",–,–,60-70%,10 to 30 µM,> 500 µM,ns,"fraction of receptors in the low-affinity state (receptor EGFP-NK2R [1]; at 100 μM of effector, approximately 25% in the absence of effector): ~100%"
"N#CCN(Cc1ccc(Cl)cc1)Cc1ccc2ccccc2c1 [NP234 or 801, [(4-chlorobenzyl)(2-naphthylmethyl)amino]acetonitrile]",–,–,60-70%,5 to 10 µM,110 µM,ns,–
N#CCN(Cc1ccc(CCc2ccccc2)cc1)Cc1ccc2ccccc2c1 [CV1-135],22%,6%,–,–,–,–,–
N#CCN(Cc1ccccc1)Cc1ccc(Cl)cc1 [CV1-122],31%,17%,–,–,–,–,–
N#CCN(Cc1ccccc1)Cc1cccc(Cl)c1Cl [CV1-97],34%,15%,–,–,–,–,–
"N#CCN(Cc1ccccc1)c1ncc(-c2ccccc2)s1 [compound 809, [benzyl(5-phenyl-1,3-thiazol-2-yl)amino]acetonitrile]",–,–,≧75%,1 to 20 µM,> 100 µM,–,–
"N#CCN(Cc1ccc(Br)cc1)Cc1ccc2ccccc2c1 [CV1-93, [4-bromobenzyl(2-naphthylmethyl)amino]acetonitrile]",26%,3%,–,–,–,–,–
"CC(=O)NC1(c2ccccc2)CCN(CC[C@H](CN(C)C(=O)c2ccccc2)c2ccc(Cl)c(Cl)c2)CC1 [SR 48968, reference compound]",–,–,–,–,–,–,"ratio of rapid/slow amplitudes of dissociation of NKA-Bo (receptor EGFP-NK2R [1]; each tested concentration of SR 48968): 45/55; relative amplitude of rapid dissociation (0.04 s^-1) of NKA-Bo (receptor EGFP-NK2R [1]; in the presence of 0.2, 1 and 5 nM of SR 48968): 45%"
N#CCN(Cc1ccccc1)Cc1cccc(Cl)c1 [CV1-123],26%,7%,–,–,–,–,–
"C#CCN(Cc1ccccc1)Cc1ccc2ccccc2c1 [compound 808, N-benzyl-N-(2-naphthylmethyl)-N-prop-2-ynylamine]",–,–,≧70%,20 to 30 µM,> 200 µM,–,–
"N#CCN(Cc1ccc(N)cc1)Cc1cccc2ccccc12 [compound 804, [(4-aminobenzyl)(1-naphthylmethyl)amino]acetonitrile]",–,–,≧80%,20 to 30 µM,> 100 µM,ns,–
N#CCN(Cc1ccccc1)Cc1c[nH]c2ccccc12 [CV1-81],22%,15%,–,–,–,–,–
"N#CCN(Cc1ccccc1)Cc1cccc(Br)c1 [CV1-84, [benzyl(3-bromobenzyl)amino]acetonitrile]",25%,4%,–,–,–,–,–
"N#CCN(Cc1ccccc1)Cc1ccc(Br)cc1 [CV1-85, [benzyl(4-bromobenzyl)amino]acetonitrile]",28%,4%,–,–,–,–,–

# More lines, main results first:
% al (at 10 μM) (receptor EGFP-NK2R [1]),% bond reversion (at 10 μM) (receptor EGFP-NK2R [2]),% al (max): maximum value observed for the increase in amplitude of the rapid dissociation rate (receptor EGFP-NK2R [1]),EC50 (receptor EGFP-NK2R [1]),IC50 (receptor EGFP-NK2R [2]),SMILES,Ca Rep.: ability to evoke a calcium response on cells not expressing the EGFP-NK2R receptor [3],other results
–,–,ns,–,> 50 µM,"Nc1ccc(CNCc2ccc3ccccc3c2)cc1 [H3, 4-{[(Naphthalen-2-ylmethyl)-amino]-methyl}-phenylamine]",ns,EC50 (μM): concentration of compound causing a 50% increase (relative to the maximum value) in the percentage of the amplitude of the rapid dissociation rate (receptor EGFP-NK2R [1]): ns
–,–,>60%,> 50 µM,≥ 100 µM,"NC(=O)CN(Cc1ccc2ccccc2c1)c1ccccc1 [H10, 2-(Naphthalen-2-ylmethyl-phenyl-amino)-acetamide]",ns,–
–,–,≧60%,≥ 50 µM,90 µM,"O=C(CC(Nc1ncc(-c2ccccc2)s1)c1ccccc1)c1ccccc1 (stereo not drawn) [F7, 1,3-Diphenyl-3-(5-phenyl-thiazol-2-ylamino)-propan-1-one]",ns,–
–,–,ns,–,46 µM,"NCCCC(NC(=O)c1ccccc1)C(=O)NC(Cc1ccccc1)C(N)=O (stereo not drawn) [G6, N-(4-amino-1-(1-carbamoyl-2-phenyl-ethylcarbamoyl)-butyl)-benzamide]",–,EC50 (μM): concentration of compound causing a 50% increase (relative to the maximum value) in the percentage of the amplitude of the rapid dissociation rate (receptor EGFP-NK2R [1]): ns; effect on the dissociation kinetics of NKA-Bo (receptor EGFP-NK2R [1]; dissociation by non-fluorescent NKA in the presence of compound): does not alter the dissociation rate; amplitude of the rapid dissociation of NKA-Bo (% of total signal) (receptor EGFP-NK2R [1]; [4]): 66%; amplitude of the slow dissociation of NKA-Bo (% of total signal) (receptor EGFP-NK2R [1]; [4]): 33%
–,–,80%,50 to 80 µM,> 100 µM,"Clc1ccc(CNCc2ccc3ccccc3c2)cc1 [H6, (4-Chloro-benzyl)-naphthalen-2-ylmethyl-amine]",–,–
–,–,65%,1 to 5 µM,–,"c1ccc(CNc2ncc(-c3ccccc3)s2)cc1 [F3, Benzyl-(5-phenyl-thiazol-2-yl)-amine]",–,–
–,–,70%,10 to 30 µM,> 100 µM,"CCOC(=O)c1ccc(CN(CC#N)Cc2ccc3ccccc3c2)cc1 [G11, 4-[(Cyanomethyl-naphthalen-2-ylmethyl-amino)-methyl]-benzoic acid ethyl ester]",ns,–
–,–,ns,–,> 50 µM,"Cc1ccc(NC(CC(=O)c2ccccc2)c2ccccc2)nc1 (stereo not drawn) [F9, 3-(5-Methyl-pyridin-2-ylamino)-1,3-diphenyl-propan-1-one]",–,EC50 (μM): concentration of compound causing a 50% increase (relative to the maximum value) in the percentage of the amplitude of the rapid dissociation rate (receptor EGFP-NK2R [1]): ns

# From patent publication US20060194259A1, “Method for isolating an allosteric effector of a receptor” (priority 2002, published 2006)
